# Measurements as given in PubChem BioAssay (NCI).
#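 Cultured in 96-well plates, cells were exposed to test compound for 48 hours across five concentrations. At the GI50, growth is halved. The concentration for full growth arrest is given as TGI.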
# Key:
# Assay in all cases: NCI-60 cell line screen, 48 h
# [1] = tested on: A498 renal
# [2] = tested on: NCI-H460 lung
# [3] = tested on: CAKI-1 renal
# [4] = tested on: NCI-H522 lung
# [5] = tested on: HT29 colon
# [6] = tested on: UO-31 renal
# [7] = tested on: HCC-2998 colon
# [8] = tested on: OVCAR-5 ovarian
# [9] = tested on: SF-539 CNS
# [10] = tested on: MCF7 breast
# [11] = tested on: PC-3 prostate
# [12] = tested on: LOX IMVI melanoma
# [13] = tested on: SN12C renal
# [14] = tested on: SK-MEL-28 melanoma
# [15] = tested on: A549 NSCLC
# [16] = tested on: HS 578T breast
# [17] = tested on: NCI/ADR-RES ovarian
# [18] = tested on: BT-549 breast
# [19] = tested on: M14 melanoma
# [20] = tested on: IGROV1 ovarian
# [21] = tested on: RPMI-8226 leukemia
# [22] = tested on: UACC-62 melanoma
# [23] = tested on: ACHN renal
# [24] = tested on: EKVX NSCLC
# [25] = tested on: TK-10 renal
# [26] = tested on: RXF 393 renal
# [27] = tested on: SW-620 colon
# [28] = tested on: SK-OV-3 ovarian
# [29] = tested on: MDA-MB-231 breast
# [30] = tested on: 786-0 renal
# [31] = tested on: T-47D breast
# [32] = tested on: KM12 colon
# [33] = tested on: OVCAR-8 ovarian
# [34] = tested on: NCI-H23 lung
# [35] = tested on: COLO 205 colon
# [36] = tested on: MALME-3M melanoma
# [37] = tested on: HL-60(TB) leukemia
# [38] = tested on: MDA-MB-435
# [39] = tested on: K-562 leukemia
# [40] = tested on: CCRF-CEM leukemia
# [41] = tested on: SR leukemia
# [42] = tested on: SF-295 CNS
# [43] = tested on: SNB-75 CNS
# [44] = tested on: SNB-19 CNS
# [45] = tested on: HOP-62 NSCLC
# [46] = tested on: MOLT-4 leukemia
# [47] = tested on: U251 CNS
# [48] = tested on: OVCAR-3 ovarian
# [49] = tested on: HOP-92 NSCLC
# [50] = tested on: UACC-257 melanoma
# [51] = tested on: SK-MEL-2 melanoma
# [52] = tested on: HCT-15 colon
# [53] = tested on: SF-268 CNS
# [54] = tested on: NCI-H226 lung
# [55] = tested on: OVCAR-4 ovarian
# [56] = tested on: HCT-116 colon
# [57] = tested on: DU-145 prostate
# [58] = tested on: SK-MEL-5 melanoma
compound,measurement,setting,value
CC(C)c1ccc(COCc2cc(CN3CCCC3)c(O)c3ncccc23)cc1,GI50,[1],778 nM
same,TGI,[1],3810 nM
same,GI50,[2],395 nM
same,TGI,[2],1470 nM
same,GI50,[3],146 nM
same,TGI,[3],4440 nM
same,GI50,[4],287 nM
same,TGI,[4],1110 nM
same,GI50,[5],2640 nM
same,TGI,[5],6830 nM
same,GI50,[6],127 nM
same,TGI,[6],2140 nM
same,GI50,[7],1580 nM
same,TGI,[7],6030 nM
same,GI50,[8],1430 nM
same,TGI,[8],13500 nM
same,GI50,[9],420 nM
same,TGI,[9],2040 nM
same,GI50,[10],365 nM
same,TGI,[10],1520 nM
same,GI50,[11],657 nM
same,TGI,[11],11200 nM
same,GI50,[12],334 nM
same,TGI,[12],1400 nM
same,GI50,[13],825 nM
same,TGI,[13],4600 nM
same,GI50,[14],768 nM
same,TGI,[14],10200 nM
same,GI50,[15],645 nM
same,TGI,[15],8310 nM
same,GI50,[16],1720 nM
same,TGI,[16],7540 nM
same,GI50,[17],50.8 nM
same,TGI,[17],840 nM
same,GI50,[18],1450 nM
same,TGI,[18],8570 nM
same,GI50,[19],351 nM
same,TGI,[19],1990 nM
same,GI50,[20],493 nM
same,TGI,[20],4360 nM
same,GI50,[21],601 nM
same,TGI,[21],2720 nM
same,GI50,[22],318 nM
same,TGI,[22],1620 nM
same,GI50,[23],149 nM
same,TGI,[23],5440 nM
same,GI50,[24],746 nM
same,TGI,[24],11900 nM
same,GI50,[25],409 nM
same,TGI,[25],12600 nM
same,GI50,[26],878 nM
same,TGI,[26],3450 nM
same,GI50,[27],471 nM
same,TGI,[27],2380 nM
same,GI50,[28],639 nM
same,TGI,[28],4530 nM
same,GI50,[29],774 nM
same,TGI,[29],3270 nM
same,GI50,[30],468 nM
same,TGI,[30],3830 nM
same,GI50,[31],398 nM
same,TGI,[31],4370 nM
same,GI50,[32],534 nM
same,TGI,[32],3130 nM
same,GI50,[33],430 nM
same,TGI,[33],2150 nM
same,GI50,[34],708 nM
same,TGI,[34],3130 nM
same,GI50,[35],3340 nM
same,TGI,[35],11900 nM
same,GI50,[36],1450 nM
same,TGI,[36],8120 nM
same,GI50,[37],314 nM
same,TGI,[37],1400 nM
same,GI50,[38],855 nM
same,TGI,[38],11200 nM
same,GI50,[39],374 nM
same,TGI,[39],2440 nM
same,GI50,[40],398 nM
same,TGI,[40],3910 nM
same,GI50,[41],323 nM
same,TGI,[41],2080 nM
same,GI50,[42],1180 nM
same,TGI,[42],6260 nM
same,GI50,[43],1190 nM
same,TGI,[43],11500 nM
same,GI50,[44],772 nM
same,TGI,[44],5700 nM
same,GI50,[45],367 nM
same,TGI,[45],5040 nM
same,GI50,[46],378 nM
same,TGI,[46],2130 nM
same,GI50,[47],466 nM
same,TGI,[47],2450 nM
same,GI50,[48],403 nM
same,TGI,[48],1870 nM
same,GI50,[49],1670 nM
same,TGI,[49],11700 nM
same,GI50,[50],783 nM
same,TGI,[50],3930 nM
same,GI50,[51],1610 nM
same,TGI,[51],4530 nM
same,GI50,[52],65.5 nM
same,TGI,[52],2070 nM
same,GI50,[53],673 nM
same,TGI,[53],7980 nM
same,GI50,[54],912 nM
same,TGI,[54],3190 nM
same,GI50,[55],320 nM
same,TGI,[55],1410 nM
same,GI50,[56],348 nM
same,TGI,[56],1470 nM
same,GI50,[57],770 nM
same,TGI,[57],9720 nM
same,GI50,[58],302 nM
same,TGI,[58],1150 nM
